In ChEMBL document CHEMBL1149662, “Design and synthesis of a library of tertiary amides: evaluation as mimetics of the melanocortins' active core” (Bioorg Med Chem, 2007):

Assays:
[1] = biological target: Melanocortin receptor 5 (Homo sapiens, UniProt P33032); assay: Displacement of [125I]NDP-MSH from human recombinant MC5 receptor expressed in Sf9 cells
[2] = biological target: Melanocortin receptor 3 (Homo sapiens, UniProt P41968); assay: Displacement of [125I]NDP-MSH from human recombinant MC3 receptor expressed in Sf9 cells
[3] = biological target: Melanocortin receptor 4 (Homo sapiens, UniProt P32245); assay: Displacement of [125I]NDP-MSH from human recombinant MC4 receptor expressed in Sf9 cells
[4] = biological target: Melanocyte-stimulating hormone receptor (Mus musculus, UniProt Q01727); assay: Displacement of [125I]NDP-MSH from MC1 receptor in mouse B16 cells; assay type: cell-based
Sequence of Melanocyte-stimulating hormone receptor (Q01727 whole entry): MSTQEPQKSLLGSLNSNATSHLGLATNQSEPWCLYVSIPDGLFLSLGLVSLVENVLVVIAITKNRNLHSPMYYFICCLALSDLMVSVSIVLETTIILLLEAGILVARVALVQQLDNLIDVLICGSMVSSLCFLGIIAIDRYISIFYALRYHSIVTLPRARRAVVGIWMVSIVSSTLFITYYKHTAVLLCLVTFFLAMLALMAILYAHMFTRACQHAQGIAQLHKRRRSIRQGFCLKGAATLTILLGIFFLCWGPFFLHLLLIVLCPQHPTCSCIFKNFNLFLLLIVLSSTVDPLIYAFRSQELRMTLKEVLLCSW

Sequence of Melanocortin receptor 3 (P41968 whole entry): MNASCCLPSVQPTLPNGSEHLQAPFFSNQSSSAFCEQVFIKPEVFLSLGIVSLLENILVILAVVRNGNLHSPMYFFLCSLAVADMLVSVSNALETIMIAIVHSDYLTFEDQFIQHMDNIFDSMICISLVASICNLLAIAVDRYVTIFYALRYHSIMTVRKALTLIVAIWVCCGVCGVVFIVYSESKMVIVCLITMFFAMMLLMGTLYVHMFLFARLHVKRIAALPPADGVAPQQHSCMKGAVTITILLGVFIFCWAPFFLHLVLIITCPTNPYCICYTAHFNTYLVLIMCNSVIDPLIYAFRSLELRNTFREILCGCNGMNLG
Sequence of Melanocortin receptor 5 (P33032 whole entry): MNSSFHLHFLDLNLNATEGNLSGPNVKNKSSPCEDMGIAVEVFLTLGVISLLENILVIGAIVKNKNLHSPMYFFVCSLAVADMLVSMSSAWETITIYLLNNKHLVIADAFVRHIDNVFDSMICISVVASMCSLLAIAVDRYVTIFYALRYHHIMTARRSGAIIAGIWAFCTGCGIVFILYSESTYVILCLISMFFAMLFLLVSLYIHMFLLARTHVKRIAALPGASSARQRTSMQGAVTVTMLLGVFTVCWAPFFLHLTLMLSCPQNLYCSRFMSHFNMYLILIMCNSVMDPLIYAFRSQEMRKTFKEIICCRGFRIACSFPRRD
Sequence of Melanocortin receptor 4 (P32245 whole entry): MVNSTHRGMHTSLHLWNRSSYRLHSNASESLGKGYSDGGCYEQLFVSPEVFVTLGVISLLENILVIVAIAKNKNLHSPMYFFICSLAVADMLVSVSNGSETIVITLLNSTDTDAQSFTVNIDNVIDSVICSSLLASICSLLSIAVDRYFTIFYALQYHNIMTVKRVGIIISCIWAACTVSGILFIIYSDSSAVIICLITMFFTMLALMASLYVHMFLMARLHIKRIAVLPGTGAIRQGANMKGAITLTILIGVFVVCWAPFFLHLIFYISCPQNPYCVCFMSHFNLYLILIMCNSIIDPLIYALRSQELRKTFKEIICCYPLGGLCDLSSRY

Row | Compound | Ki [1] | Ki [2] | Ki [3] | Ki [4]
1 | N[C@H]1CC[C@H](NC(=O)N[C@H]2CC[C@H](N(Cc3ccccc3)C(=O)CCCc3c[nH]c4ccccc34)CC2)CC1 | 176 µM | 99 µM | 25 µM | 11 µM
2 | NCCN(C(=O)CCCc1c[nH]c2ccccc12)C1CCC2(CCCCC2)CC1 | 12 µM | 2.7 µM | 10 µM | 3.2 µM
3 | NC(N)=NCCCCN(Cc1ccc2ccccc2c1)C(=O)CCc1c[nH]c2ccccc12 | 21 µM | 50 µM | 116 µM | 12 µM
4 | NCCN(C/C(Cl)=C/c1ccccc1)C(=O)CCCc1c[nH]c2ccccc12 | – | 65 µM | 5.8 µM | 5.6 µM
5 | NCCCCCN(Cc1ccccc1)C(=O)[C@@H](N)Cc1ccc2ccccc2c1 | 34 µM | 39 µM | 21 µM | 10 µM
6 | C/C(=C\c1ccccc1)CN(CCCCCCN)C(=O)c1cc2cc(O)ccc2[nH]1 | 20 µM | 27 µM | 11 µM | 3.7 µM
7 | NCCN(Cc1ccc2ccccc2c1)C(=O)c1c[nH]c2ccccc12 | 27 µM | 134 µM | 66 µM | 3.6 µM
8 | NCCCCCN(C(=O)Cc1c[nH]c2ccccc12)C1CCCCCC1 | 35 µM | 14 µM | 16 µM | 6 µM
9 | C/C(=C\c1ccccc1)CN(CCCN)C(=O)CCCc1cccs1 | 91 µM | 63 µM | 14 µM | 6.8 µM
10 | NCCCN(C/C(Cl)=C/c1ccccc1)C(=O)CCCc1c[nH]c2ccccc12 | 31 µM | 18 µM | 7 µM | 6.1 µM
11 | NCCCN(C(=O)c1cc2cc(OCc3ccccc3)ccc2[nH]1)C1CCc2ccccc2C1 (configuration not stated) | 681 µM | 542 µM | 21 µM | 26 µM
12 | NCCCCCN(C/C=C\c1ccccc1)C(=O)CCc1c(Cc2ccc(O)cc2)[nH]c2ccccc12 | 6.7 µM | 27 µM | 7.1 µM | 3.3 µM
13 | NCCCN(CCc1ccccc1)C(=O)CCCc1c[nH]c2ccccc12 | 33 µM | 30 µM | 164 µM | 21 µM
14 | NCCCCCN(C(=O)COc1ccc2ccccc2c1)C1CCC2(CC=CCC2)CC1 (configuration not stated) | 8 µM | 3.7 µM | 5.9 µM | 7.4 µM
15 | Cc1ccccc1CN(C(=O)CCCc1c(Cc2ccc(O)cc2)[nH]c2ccccc12)C1CCC(CC2CCC(N)CC2)CC1 (configuration not stated) | 4.4 µM | 349 µM | 4.1 µM | 4.7 µM
16 | Cc1ccc(CN(C(=O)CCCc2c(Cc3ccc(O)cc3)[nH]c3ccccc23)C2CCC(CC3CCC(N)CC3)CC2)cc1 (configuration not stated) | 2.2 µM | 147 µM | 1.9 µM | 4.7 µM
17 | NCCCCCN(Cc1ccccc1)C(=O)[C@@H](N)Cc1c[nH]c2ccccc12 | 54 µM | 43 µM | 44 µM | 34 µM
18 | NCCCCCN(Cc1ccccc1)C(=O)[C@H](N)Cc1ccc2ccccc2c1 | 24 µM | 41 µM | 13 µM | 5 µM
19 | NC1CCC(CC2CCC(N(Cc3ccccn3)C(=O)CCCc3c[nH]c4ccccc34)CC2)CC1 (configuration not stated) | 49 µM | 39 µM | 5.6 µM | 4.6 µM
20 | NC1CCCC(NC(=O)NC2CCCC(N(Cc3ccccc3)C(=O)CCCc3c(Cc4ccc(O)cc4)[nH]c4ccccc34)C2)C1 (configuration not stated) | 23 µM | 25 µM | 6.5 µM | 2.9 µM
21 | NC1CCCC(NC(=O)NC2CCCC(N(C/C(Cl)=C/c3ccccc3)C(=O)CCCc3c[nH]c4ccccc34)C2)C1 (configuration not stated) | 16 µM | 45 µM | 18 µM | 3.1 µM
22 | C/C(=C\c1ccccc1)CN(CCCN)C(=O)Cc1c[nH]c2ccccc12 | 89 µM | 44 µM | 67 µM | 9.3 µM
23 | NCCCN(C(=O)CCc1c[nH]c2ccccc12)C1CCc2ccccc2C1 (configuration not stated) | – | – | 7 µM | 3.7 µM
24 | NCCCCCN(CCCc1ccccc1)C(=O)CCCc1c[nH]c2ccccc12 | 19 µM | 61 µM | – | 18 µM
25 | NCCN(Cc1ccccc1)C(=O)CCCc1c[nH]c2ccccc12 | – | 49 µM | 21 µM | 22 µM
26 | NCCN(CCCc1ccccc1)C(=O)CCc1c[nH]c2ccccc12 | 20 µM | 127 µM | – | 21 µM

Further molecules by falling Ki [4], results first:

Row | Ki [1] | Ki [2] | Ki [3] | Ki [4] | Compound
27 | 31 µM | 46 µM | 9.8 µM | 2.9 µM | CC(Cc1ccccc1)CN(CCCCCCN)C(=O)c1cc2cc(O)ccc2[nH]1 (configuration not stated)
28 | 10 µM | 10 µM | 3.2 µM | 2.8 µM | N[C@H]1CC[C@H](N(C/C(Cl)=C/c2ccccc2)C(=O)CCCc2c[nH]c3ccccc23)CC1
29 | 17 µM | – | 99 µM | 2.7 µM | C/C(=C/c1ccccc1)CN(CCCCCN)C(=O)/C=C/c1c[nH]c2ccccc12
30 | 23 µM | 132 µM | 2.5 µM | 2.6 µM | COc1ccc(CN(C(=O)CCCc2c(Cc3ccc(O)cc3)[nH]c3ccccc23)C2CCC(CC3CCC(N)CC3)CC2)cc1Br (configuration not stated)
31 | – | 28 µM | 7 µM | 2.5 µM | NC1CCC(CC2CCC(N(Cc3ccncc3)C(=O)CCCc3c[nH]c4ccccc34)CC2)CC1 (stereo in doubt; form 1)
32 | 4.8 µM | 13 µM | 3.1 µM | 2.2 µM | CC1CC(CC2CCC(N(C/C(Cl)=C/c3ccccc3)C(=O)CCCc3c[nH]c4ccccc34)C(C)C2)CCC1N (stereo in doubt; form 2)
33 | 21 µM | 65 µM | 3 µM | 2.1 µM | NC1CCC(CC2CCC(N(Cc3c(F)cccc3F)C(=O)CCCc3c(Cc4ccc(O)cc4)[nH]c4ccccc34)CC2)CC1 (configuration not stated)
34 | 9.6 µM | 14 µM | 2.2 µM | 2.1 µM | COC(=O)c1ccc(CN(C(=O)CCCc2c[nH]c3ccccc23)C2CCC(CC3CCC(N)CC3)CC2)cc1 (configuration not stated)
35 | 266 µM | 14 µM | 3.2 µM | 2 µM | COc1cc(Br)c(/C=C/CN(C(=O)CCCc2c[nH]c3ccccc23)C2CCC(CC3CCC(N)CC3)CC2)cc1OC (configuration not stated)
36 | 8.9 µM | 25 µM | 1.5 µM | 1.9 µM | COc1cc(Cl)c(CN(C(=O)CCCc2c[nH]c3ccccc23)C2CCC(CC3CCC(N)CC3)CC2)cc1OC (stereo in doubt; form 2)
37 | 11 µM | 23 µM | 2.4 µM | 1.9 µM | COc1ccc(CN(C(=O)CCCc2c(Cc3ccc(O)cc3)[nH]c3ccccc23)C2CCC(CC3CCC(N)CC3)CC2)cc1OC (configuration not stated)
38 | – | – | 4.7 µM | 1.9 µM | NC1CCC(CC2CCC(N(C/C(Cl)=C/c3ccccc3)C(=O)COc3ccc4ccccc4c3)CC2)CC1 (stereo in doubt; form 1)
39 | – | – | 5 µM | 1.9 µM | NC1CCC(CC2CCC(N(C/C(Cl)=C/c3ccccc3)C(=O)COc3ccc4ccccc4c3)CC2)CC1 (stereo in doubt; form 6)
40 | 18 µM | 19 µM | 6.4 µM | 1.7 µM | NCCCCN(Cc1ccc2ccccc2c1)C(=O)c1c[nH]c2ccccc12
41 | 22 µM | 27 µM | 5.3 µM | 1.6 µM | NC1CCC(CC2CCC(N(Cc3c(Cl)cccc3Cl)C(=O)CCCc3c(Cc4ccc(O)cc4)[nH]c4ccccc34)CC2)CC1 (configuration not stated)
42 | 9.1 µM | 25 µM | 3.7 µM | 1.5 µM | NCC1CCCC(CN(C/C(Cl)=C/c2ccccc2)C(=O)CCCc2c[nH]c3ccccc23)C1 (configuration not stated)
43 | 6.4 µM | 17 µM | 7.7 µM | 1.5 µM | NCc1cccc(CN(Cc2ccc3ccccc3c2)C(=O)CCCc2c[nH]c3ccccc23)c1
44 | – | 289 µM | 5.9 µM | 1.5 µM | NC1CCC(CC2CCC(N(C/C(Cl)=C/c3ccccc3)C(=O)COc3ccc4ccccc4c3)CC2)CC1 (stereo in doubt; form 2)
45 | 105 µM | 15 µM | 2.6 µM | 1.4 µM | NC1CCC(CC2CCC(N(Cc3ccccc3)C(=O)CCCc3c[nH]c4ccccc34)CC2)CC1 (stereo in doubt)
46 | 9.4 µM | 29 µM | 5.5 µM | 1.4 µM | C=C(Br)CN(C(=O)CCCc1c[nH]c2ccccc12)C1CCC(CC2CCC(N)CC2)CC1 (stereo in doubt; form 2)
47 | 4.9 µM | 31 µM | 5.6 µM | 1.4 µM | NC1CCC(CC2CCC(N(C/C(Cl)=C/c3ccccc3)C(=O)CCCc3c[nH]c4ccccc34)CC2)CC1 (stereo in doubt; form 4)
48 | 5 µM | 31 µM | 2.1 µM | 1.3 µM | CC1CC(CC2CCC(N(Cc3ccccc3)C(=O)CCCc3c[nH]c4ccccc34)C(C)C2)CCC1N (stereo in doubt; form 5)
49 | 12 µM | 22 µM | 3 µM | 1.3 µM | Cc1cccc(CN(C(=O)CCCc2c[nH]c3ccccc23)C2CCC(CC3CCC(N)CC3)CC2)c1 (configuration not stated)
50 | – | – | 4 µM | 1.3 µM | NC1CCC(CC2CCC(N(C/C(Cl)=C/c3ccccc3)C(=O)COc3ccc4ccccc4c3)CC2)CC1 (stereo in doubt; form 7)
51 | – | – | 4.4 µM | 0.96 µM | NC1CCC(CC2CCC(N(C/C(Cl)=C/c3ccccc3)C(=O)COc3ccc4ccccc4c3)CC2)CC1 (stereo in doubt; form 4)
52 | 0.93 µM | 24 µM | 7.4 µM | 0.85 µM | C/C(=C\c1ccccc1)CN(CCCN)C(=O)c1c[nH]c2ccccc12
53 | 5.5 µM | 27 µM | 3.8 µM | 0.81 µM | C=C(Br)CN(C(=O)CCCc1c[nH]c2ccccc12)C1CCC(CC2CCC(N)CC2)CC1 (stereo in doubt; form 4)
54 | – | – | 3.4 µM | 0.41 µM | NC1CCC(CC2CCC(N(C/C(Cl)=C/c3ccccc3)C(=O)COc3ccc4ccccc4c3)CC2)CC1 (stereo in doubt; form 3)
